The values below come from patent US20230404985A1, “METHODS OF TREATING TUMORS AND CANCERS HAVING DYSREGULATED WNT SIGNALING PATHWAYS” (ICAHN SCHOOL OF MEDICINE AT MOUNT SINAI, priority 2020, published 2023).

SMILES strings stand for the structures.

The nature of data set [1]: Single dose oral pharmacokinetics. The following applies: for half-life: 20 mg/kg oral gavage. The format is in vivo, BALB/c mice. The protocol:
All animal experiments were carried out in accordance with ethical guidelines and approved by the Institutional Animal Care and Use Committee (IACUC), Biological Resource Center (BRC) A*STAR. BALB/c mice were purchased from InVivos, Singapore and fed with a standard laboratory diet and distilled water ad libitum. The animals were kept on a 12-hour light/dark cycle at 22±2° C. in individually ventilated caging systems with 50-65% humidity in the Biological Resource Centre, A*Star, Singapore. For single dose oral pharmacokinetic studies, female BALB/c mice (n=8, 6-8 weeks old) were used. The animals were fasted overnight and administered with a single oral dose (20 mg/kg) of WNTinib as prepared above. Blood samples were collected at pre-determined time points [0 (pre-dosing), 0.5, 1, 2, 4, 8, 12, and 24 hours] through the retro-orbital plexus (using micro hematocrit capillary tubes) into microvette CB300 K2E tubes. A sparse sampling technique (four mice per time point) was adopted during blood collection so that blood loss from each mouse was kept less than 10% of the total blood volume. Plasma was harvested by centrifuging the blood using a Sorvall Legend Micro 21R centrifuge (Thermo Scientific) at 3000 rpm for 15 minutes and stored at […] until further analysis. Mice were allowed to access feed 2 hours post-dosing and water ad libitum. Pharmacokinetic analysis of these compounds was performed using a Shimadzu UFLC prominence system (equipped with degasser (DGU-20A5), isopump (LC-20AD), autosampler (SIL-20AC HT) and column oven (CTO-20AC)) connected to a Sciex 4000 Q-Trap LC/MS/MS with heated electrospray ionization source. The primary stock solution (1.0 mg/mL) of WNTinib and Carbamazepine (Internal Standard, IS) were prepared in DMSO and used for subsequent dilutions. Required secondary and working stocks were prepared from the primary stocks using acetonitrile:water (75:25, v/v) as a diluent for the calibration curve (CC) and quality control (QC) studies. For the pharmacokinetic analysis, the mouse plasma was mixed with carbamazepine (50 ng/ml, final concentration) and extraction solvent (70% acetonitrile and 0.1% formic acid) and shaken for 10 minutes. After vigorous shaking, the samples were centrifuged at 14000 rpm for 20 minutes and the supernatant was collected. Chromatographic resolution of compound and the IS was achieved by injecting 1-2 μL of the processed sample on a Luna C18 100 Å column (50×2.0 mm, 5 μm; Phenomenex, USA) maintained at room temperature using a mobile phase consisting of 5 mM ammonium formate (buffered with 0.1% formic acid) and acetonitrile delivered at a flow-rate of 0.4 mL/minute. Quantitation was carried out using the multiple reaction monitoring of the transitions.

The test system of data set [2] is MYC-Tp53 tumor organoid allografts. Kind of data set: MYC-Tp53 tumor organoid allografts. The following applies: 30 mg/kg daily oral gavage. The format is in vivo, C57BL/6J mice. How it is done:
300,000 cells per allograft were prepared in 8 mg/mL Matrigel. 6-8-week-old C57BL/6J mice were shaved the day prior to injection. A 26^5/8-gauge needle was used to implant organoids into the flank in 100 μL Matrigel. Tumor allografts were measured daily with calipers, and upon an average volumetric measurement of 100 mm^3, animals were randomized and drug dosing was started. Drugs were dosed daily at 30 mg/kg via oral gavage. Tumor allografts were also measured daily.
MYC-CTNNB1 tumor organoids were engrafted into C57BL/6 mice and treatment was started when tumor volume reached 100 mm^3.

The next data set concerns AKSP tumoroids. The data set is described as follows: Full dose-response in CRC tumoroids (AKSP). The class given is cell-based, mouse. To be noted: TiterGlo after 72 hours. The protocol:
(§1) FIGS. 13A-13E show results pertaining to colorectal cancer. […] Data are column/gene normalized on a 0-100 scale with 0 being the lowest expression level and 100 the highest. FIG. 13D show full dose-response analysis of WNTinib's effects on the indicated organoid and tumoroid lines; viability was quantified using the TiterGlo assay after 72 hours. WT intestinal organoids are used as a control. […] Images of the intestine are shown as an example.
Next, a full dose-response of WNTinib in WildType normal organoids (WT), APC^KO (A), APC^KO KRAS^G12D/SMAD4^KO (AKS) and APC^KO KRAS^G12D/SMAD4^KO P53^KO (AKSP) tumoroids was performed. WNTinib has a lower IC50 in the aggressive metastatic AKSP tumoroids compared to their matched parental WT organoid line, providing thus a therapeutic window for the most advanced CRC models (FIG. 13D).

Data set [3] relates to wild type (WT) healthy intestinal organoids. The data set is described as follows: TiterGlo viability of wild type intestinal organoids. To be noted: 72 hours post treatment. The class given is cell-based, mouse. The protocol: as §1
First, an APC deletion (A) was introduced, then a KRAS^G12D overexpression (AK) in combination with a SMAD4^KO was introduced to affect the TGFbeta pathway (AKS). Last, P53 was deleted to mimic the latest stages of metastatic disease progression (AKSP).

In a further data set the test system is kinome. Kind of data set: Kinome profiling (KINOMEscan). The format is binding. How it is done:
WNTinib's inhibitory profile was performed using Eurofins' (DiscoverX) KINOMVEscan platform. Inhibition trees were visualized using KinMap (Eid et al., “KinMap: A Web-Based Tool for Interactive Navigation through Human Kinome Data,” BMC 10 Bioinformatics 18(1):16 (2017), which is hereby incorporated by reference in its entirety). For regorafenib and sorafenib, publicly available data was used to visualize inhibition trees (Uitdehaag et al., “Comparison of the Cancer Gene Targeting and Biochemical Selectivities of All Targeted Kinase Inhibitors Approved for Clinical Use,” Plos ONE 9(3):e92146 (2014) and Davis et al., “Comprehensive Analysis of Kinase Inhibitor Selectivity,” Nat. Biotechnol. 29(11):1046-1051 (2011), which are hereby incorporated by reference in their entirety).

Consider `CNC(=O)c1cc(Oc2ccc(NC(=O)Nc3ccc(Cl)c(C(F)(F)F)c3)cc2)ccn1` [sorafenib, reference compound], for which the half-life in data set [1] (female, BALB/c, mouse, plasma) was 8 h. Besides, the “activity in MYC-Tp53 allografts” value in data set [2] is “better activity”.

With `CNC(=O)c1cc(Oc2ccc(NC(=O)Nc3ccc(C(F)(F)C(F)(F)F)cc3)c(F)c2)ccn1` [WNTinib, 4-(3-fluoro-4-(3-(4-(perfluoroethyl)phenyl)ureido)phenoxy)-N-methylpicolinamide], in data set [1] (20 mg/kg oral), the “detectable quantities of drug in blood plasma, time post dosing” value is reported as “up to 72 hours”. The compound also had a half-life in data set [1] (female, BALB/c, mouse, plasma) of 9.38 h. Moreover, in data set [1] (female, BALB/c, mouse, plasma, 20 mg/kg oral, read-out: concentration 24 hours after oral dosing), the concentration at 24 h is 7 µM. Further, the “IC50 in AKSP tumoroids compared to parental WT organoid line” value with AKSP tumoroids is given as “lower IC50”. Besides, in data set [3], the “viability of WT organoids” value is on record as “without affecting that of WT organoids”. In data set [2], the “activity in MYC-Tp53 allografts” value is “inactive”. In addition, the “kinome selectivity (selectivity scores)” value in the data set with kinome (compared with sorafenib and regorafenib) is recorded as “generally less promiscuous than the parental compounds”. At kinome (in vitro kinase assays), the kinase targets maintained entry is “maintains several of the proposed key targets of sorafenib and regorafenib, including c-KIT, PDGFRα/β, VEGFR1/2, RET and FLT3”.

As a reminder, the half-life is the time in which the quantity being followed falls by half.
